Test results taken from PubChem BioAssay (NCI).
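Test compounds were applied to cells in 96-well plates for 48 hours at 5 doses. TGI: total growth inhibition.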

What was measured:
Test in all cases: growth of human tumour cells (NCI), 48 h
786-0 renal = test system: 786-0 renal
A498 renal = test system: A498 renal
A549 NSCLC = test system: A549 NSCLC
ACHN renal = test system: ACHN renal
CAKI-1 renal = test system: CAKI-1 renal
CCRF-CEM leukemia = test system: CCRF-CEM leukemia
COLO 205 colon = test system: COLO 205 colon
DMS 114 small cell lung = test system: DMS 114 small cell lung
EKVX NSCLC = test system: EKVX NSCLC
HCC-2998 colon = test system: HCC-2998 colon
HCT-116 colon = test system: HCT-116 colon
HCT-15 colon = test system: HCT-15 colon
HL-60(TB) leukemia = test system: HL-60(TB) leukemia
HOP-18 NSCLC = test system: HOP-18 NSCLC
HOP-62 NSCLC = test system: HOP-62 NSCLC
HOP-92 NSCLC = test system: HOP-92 NSCLC
HT29 colon = test system: HT29 colon
IGROV1 ovarian = test system: IGROV1 ovarian
K-562 leukemia = test system: K-562 leukemia
KM12 colon = test system: KM12 colon
KM20L2 colon = test system: KM20L2 colon
LOX IMVI melanoma = test system: LOX IMVI melanoma
LXFL 529 NSCLC = test system: LXFL 529 NSCLC
M14 melanoma = test system: M14 melanoma
M19-MEL melanoma = test system: M19-MEL melanoma
MALME-3M melanoma = test system: MALME-3M melanoma
MOLT-4 leukemia = test system: MOLT-4 leukemia
NCI-H226 lung = test system: NCI-H226 lung
NCI-H23 lung = test system: NCI-H23 lung
NCI-H460 lung = test system: NCI-H460 lung
NCI-H522 lung = test system: NCI-H522 lung
OVCAR-3 ovarian = test system: OVCAR-3 ovarian
OVCAR-4 ovarian = test system: OVCAR-4 ovarian
OVCAR-5 ovarian = test system: OVCAR-5 ovarian
OVCAR-8 ovarian = test system: OVCAR-8 ovarian
RPMI-8226 leukemia = test system: RPMI-8226 leukemia
RXF 393 renal = test system: RXF 393 renal
SF-268 CNS = test system: SF-268 CNS
SF-295 CNS = test system: SF-295 CNS
SF-539 CNS = test system: SF-539 CNS
SK-MEL-28 melanoma = test system: SK-MEL-28 melanoma
SK-MEL-5 melanoma = test system: SK-MEL-5 melanoma
SK-OV-3 ovarian = test system: SK-OV-3 ovarian
SN12C renal = test system: SN12C renal
SNB-19 CNS = test system: SNB-19 CNS
SNB-75 CNS = test system: SNB-75 CNS
SW-620 colon = test system: SW-620 colon
TK-10 renal = test system: TK-10 renal
U251 CNS = test system: U251 CNS
UACC-257 melanoma = test system: UACC-257 melanoma
UACC-62 melanoma = test system: UACC-62 melanoma
UO-31 renal = test system: UO-31 renal
XF 498 CNS = test system: XF 498 CNS
DMS 273 small cell lung = test system: DMS 273 small cell lung
SK-MEL-2 melanoma = test system: SK-MEL-2 melanoma
SNB-78 CNS = test system: SNB-78 CNS
SR leukemia = test system: SR leukemia

Measured: TGI

CC(C)=Cc1cc(C(=O)NCCNC(=O)c2cc(C=C(C)C)nc(NC#N)n2)nc(NC#N)n1
not listed: DMS 273 small cell lung | SK-MEL-2 melanoma | SNB-78 CNS | SR leukemia
> 100 µM: all other assays above

O=C(CSc1nnc(-c2ccc(N=Cc3ccc(Cl)cc3)cc2)o1)Nc1cccc([N+](=O)[O-])c1
not listed: A498 renal | CAKI-1 renal | HCC-2998 colon | HOP-92 NSCLC | IGROV1 ovarian | OVCAR-3 ovarian | OVCAR-5 ovarian | SF-539 CNS | XF 498 CNS
> 100 µM: all other assays above
